Experimental data published in US11866450B2, “Modulators of Cystic Fibrosis Transmembrane Conductance regulator, pharmaceutical compositions, methods of treatment, and process for making the modulators” (priority 2018, dated 2024).

Biological target: CFTR-mediated chloride transport (Homo sapiens, UniProt P13569)
Format: cell-based
Conditions: enteroid cells incubated with test compound 18-24 hours, acute 10 μM forskolin and 300 nM Compound III; for Max. Activity: % of chloride transport with 3 μM Compound A, 3 μM Compound II and 300 nM acute Compound III triple combination control
Description: Base medium (ADF+++) consisted of Advanced DMEM/Ham's F12, 2 mM Glutamax, 10 mM HEPES, […] penicillin/streptomycin.
Intestinal enteroid maintenance medium (IEMM) consisted of ADF+++, 1× B27 supplement, 1× N2 supplement, 1.25 mM N-acetyl cysteine, 10 mM Nicotinamide, 50 ng/mL hEGF, 10 nM Gastrin, 1 μg/mL hR-spondin-1, 100 ng/mL hNoggin, TGF-b type 1 inhibitor A-83-01, 100 μg/mL Primocin, 10 μM P38 MAPK inhibitor SB202190.
Bath 1 Buffer consisted of 1 mM MgCl2, 160 mM NaCl, 4.5 mM KCl, 10 mM HEPES, 10 mM Glucose, 2 mM CaCl2).
Chloride Free Buffer consisted of 1 mM Magnesium Gluconate, 2 mM Calcium Gluconate, 4.5 mM Potassium Gluconate, 160 mM Sodium Gluconate, 10 mM HEPES, 10 mM Glucose.
Bath1 Dye Solution consisted of Bath 1 Buffer, 0.04% Pluronic F127, 20 μM Methyl Oxonol, 30 μM CaCCinh-A01, 30 μM Chicago Sky Blue.
Chloride Free Dye Solution consisted of Chloride Free Buffer, 0.04% Pluronic F127, 20 μM Methyl Oxonol, 30 μM CaCCinh-A01, 30 μM Chicago Sky Blue.
Chloride Free Dye Stimulation Solution consisted of Chloride Free Dye Solution, 10 μM forskolin, 100 μM IBMX, and 300 nM Compound III.
Human intestinal epithelial enteroid cells were obtained from the Hubrecht Institute for Developmental Biology and Stem Cell Research, Utrecht, The Netherlands and expanded in T-Flasks as previously described (Dekkers J F, Wiegerinck C L, de Jonge H R, Bronsveld I, Janssens H M, de Winter-de Groot K M, Brandsma A M, de Jong N W M, Bijvelds M J C, Scholte B J, Nieuwenhuis E E S, van den Brink S, Clevers H, van der Ent C K, Middendorp S and M Beekman J M. A functional CFTR assay using primary cystic fibrosis intestinal organoids. Nat Med. 2013 July; 19(7):939-45).
Cells were recovered in cell recovery solution, collected by centrifugation at 650 rpm for 5 min at 4° C., resuspended in TryPLE and incubated for 5 min at 37° C. Cells were then collected by centrifugation at 650 rpm for 5 min at 4° C. and resuspended in IEMM containing 10 μM ROCK inhibitor (RI) (trans-4-[(1R)-1-aminoethyl]-N-4-pyridinylcyclohexanecarboxamide). The cell suspension was passed through a 40 μm cell strainer and resuspended at 1×10^6 cells/mL in IEMM containing 10 μM RI. Cells were seeded at 5000 cells/well into multi-well plates and incubated for overnight at 37° C., 95% humidity and 5% CO2 prior to assay.
Enteroid cells were incubated with test compound in IEMM for 18-24 hours at 37° C., 95% humidity and 5% CO2. Following compound incubations, a membrane potential dye assay was employed using a FLIPR Tetra to directly measure the potency and efficacy of the test compound on CFTR-mediated chloride transport following acute addition of 10 μM forskolin and 300 nM Compound III. Briefly, cells were washed 5 times in Bath 1 Buffer. Bath 1 Dye Solution was added and the cells were incubated for 25 min at room temperature. Following dye incubation, cells were washed 3 times in Chloride Free Dye Solution. Chloride transport was initiated by addition of Chloride Free Dye Stimulation Solution and the fluorescence signal was read for 15 min. The CFTR-mediated chloride transport for each condition was determined from the AUC of the fluorescence response to acute forskolin and 300 nM Compound III stimulation. Chloride transport was then expressed as a percentage of the chloride transport following treatment with 3 μM Compound A, 3 μM Compound II and 300 nM acute Compound III triple combination control (% Activity).

Chain of CFTR-mediated chloride transport (P13569 whole entry, looked up): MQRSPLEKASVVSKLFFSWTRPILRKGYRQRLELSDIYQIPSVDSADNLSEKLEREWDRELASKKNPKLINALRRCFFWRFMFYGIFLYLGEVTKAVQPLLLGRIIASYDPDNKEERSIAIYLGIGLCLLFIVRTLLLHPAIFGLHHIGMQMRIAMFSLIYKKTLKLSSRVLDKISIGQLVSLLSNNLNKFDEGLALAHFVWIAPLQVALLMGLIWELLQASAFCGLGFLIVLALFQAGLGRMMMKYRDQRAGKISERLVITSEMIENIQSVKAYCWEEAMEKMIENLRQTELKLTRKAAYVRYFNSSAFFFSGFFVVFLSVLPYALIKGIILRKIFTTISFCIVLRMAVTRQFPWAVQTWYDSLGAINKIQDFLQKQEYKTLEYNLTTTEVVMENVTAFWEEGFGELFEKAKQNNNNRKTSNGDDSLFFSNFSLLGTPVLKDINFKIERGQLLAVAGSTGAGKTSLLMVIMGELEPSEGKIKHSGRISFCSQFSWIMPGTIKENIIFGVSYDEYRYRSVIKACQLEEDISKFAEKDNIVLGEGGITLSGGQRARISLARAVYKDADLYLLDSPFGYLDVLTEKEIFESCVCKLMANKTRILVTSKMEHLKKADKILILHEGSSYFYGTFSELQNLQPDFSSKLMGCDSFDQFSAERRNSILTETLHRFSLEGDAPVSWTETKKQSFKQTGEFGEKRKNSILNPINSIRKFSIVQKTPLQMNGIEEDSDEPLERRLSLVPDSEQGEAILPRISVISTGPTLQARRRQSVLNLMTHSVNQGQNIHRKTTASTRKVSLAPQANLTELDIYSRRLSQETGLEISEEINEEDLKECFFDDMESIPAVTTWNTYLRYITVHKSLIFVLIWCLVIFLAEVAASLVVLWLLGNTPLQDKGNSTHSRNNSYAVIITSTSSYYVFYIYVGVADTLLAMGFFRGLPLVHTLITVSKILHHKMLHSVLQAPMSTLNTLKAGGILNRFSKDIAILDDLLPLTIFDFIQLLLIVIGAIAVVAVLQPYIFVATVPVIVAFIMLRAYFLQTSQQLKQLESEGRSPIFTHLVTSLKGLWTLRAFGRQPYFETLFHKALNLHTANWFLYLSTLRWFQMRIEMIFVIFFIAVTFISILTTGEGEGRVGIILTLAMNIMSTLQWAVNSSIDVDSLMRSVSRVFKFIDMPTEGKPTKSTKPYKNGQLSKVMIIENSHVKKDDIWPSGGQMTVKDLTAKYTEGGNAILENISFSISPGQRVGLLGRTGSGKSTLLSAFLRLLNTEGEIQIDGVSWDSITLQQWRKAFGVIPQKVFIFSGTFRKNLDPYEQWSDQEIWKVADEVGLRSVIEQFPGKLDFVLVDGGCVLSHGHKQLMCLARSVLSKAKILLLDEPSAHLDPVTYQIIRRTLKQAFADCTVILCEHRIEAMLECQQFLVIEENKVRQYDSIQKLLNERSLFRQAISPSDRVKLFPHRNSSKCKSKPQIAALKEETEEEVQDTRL

SMILES | EC50 | Max. Activity
CC1(C)C[C@@H]2CCCNc3cccc(n3)S(=O)(=O)NC(=O)c3ccc(N4CCC(OCCC(C)(C)C(F)(F)F)C4=O)nc3N1C2 (stereo partly drawn) [Compound 237, (14S)-12,12-dimethyl-8-[2-oxo-3-(4,4,4-trifluoro-3,3-dimethylbutoxy)pyrrolidin-1-yl]-2λ^6-thia-3,9,11,18,23-pentaazatetracyclo[17.3.1.111,14.05,10]tetracosa-1(22),5,7,9,19(23),20-hexaene-2,2,4-trione] | < 1000 nM | +++ (+++ is >60%)
CC1(C)CC[C@H]2CCCCNc3cccc(n3)S(=O)(=O)NC(=O)c3ccc(-n4ccc(OCCC5(C(F)(F)F)CC5)n4)nc3N21 (single isomer, unassigned) [Compound 47, 12,12-dimethyl-8-(3-{2-[1-(trifluoromethyl)cyclopropyl]ethoxy}-1H-pyrazol-1-yl)-2λ^6-thia-3,9,11,20,25-pentaazatetracyclo[19.3.1.05,10.011,15]pentacosa-1(24),5,7,9,21(25),22-hexaene-2,2,4-trione] | < 1000 nM | +++ (+++ is >60%)
C[C@@H]1CC[C@H]2CN(c3nc(-n4ccc(OCCC5(C(F)(F)F)CC5)n4)ccc3C(=O)NS(=O)(=O)c3cccc(n3)N1)C(C)(C)C2 (single isomer, unassigned) [Compound 61, 12,12,17-trimethyl-8-(3-{2-[1-(trifluoromethyl)cyclopropyl]ethoxy}-1H-pyrazol-1-yl)-2λ^6-thia-3,9,11,18,23-pentaazatetracyclo[17.3.1.111,14.05,10]tetracosa-1(23),5(10),6,8,19,21-hexaene-2,2,4-trione] | < 1000 nM | +++ (+++ is >60%)
CC1(C)C[C@@H]2CCCNc3cc(O)cc(n3)S(=O)(=O)NC(=O)c3ccc(-n4ccc(OCCCC5(C(F)(F)F)CC5)n4)nc3N1C2 [Compound 265, (14S)-21-Hydroxy-12,12-dimethyl-8-(3-{3-[1-(trifluoromethyl)cyclopropyl]propoxy}-1H-pyrazol-1-yl)-2λ^6-thia-3,9,11,18,23-pentaazatetracyclo[17.3.1.111,14.05,10]tetracosa-1(22),5,7,9,19(23),20-hexaene-2,2,4-trione] | < 1000 nM | +++ (+++ is >60%)
CC1(C)C[C@@H]2CN1c1nc(-n3ccc(OCCC(C4CC4)C4CC4)n3)ccc1C(=O)NS(=O)(=O)c1cccc(n1)NCCO2 (single isomer, unassigned) [Compound 162, 8-[3-(3,3-dicyclopropylpropoxy)-1H-pyrazol-1-yl]-12,12-dimethyl-15-oxa-2λ^6-thia-3,9,11,18,23-pentaazatetracyclo[17.3.1.111,14.05,10]tetracosa-1(23),5,7,9,19,21-hexaene-2,2,4-trione] | 1000 to 3000 nM | ++ (++ is 30-60%)
CC1(C)C[C@@H]2CCCNc3nc(ccc3O)S(=O)(=O)NC(=O)c3ccc(-n4ccc(OCCC5C6(CC6)C56CC6)n4)nc3N1C2 [Compound 254, (14S)-8-[3-(2-{dispiro[2.0.2.1]heptan-7-yl}ethoxy)-1H-pyrazol-1-yl]-20-hydroxy-12,12-dimethyl-2λ^6-thia-3,9,11,18,23-pentaazatetracyclo[17.3.1.111,14.05,10]tetracosa-1(23),5,7,9,19,21-hexaene-2,2,4-trione] | < 1000 nM | ++ (++ is 30-60%)
Cc1nn2cc1S(=O)(=O)NC(=O)c1ccc(-n3ccc(OCC(C)(C)C(F)(F)F)n3)nc1N1C[C@H](CCC2)CC1(C)C (single isomer, unassigned) [Compound 291, 12,20,20-trimethyl-4-[3-(3,3,3-trifluoro-2,2-dimethylpropoxy)-1H-pyrazol-1-yl]-10λ^6-thia-1,3,9,13,14-pentaazatetracyclo[16.2.1.111,14.02,7]docosa-2,4,6,11(22),12-pentaene-8,10,10-trione] | < 1000 nM | ++ (++ is 30-60%)
CC1CCC2CN(c3nc(N4CCN(CCC(C)(C)C)C4=O)ccc3C(=O)NS(=O)(=O)c3cccc(n3)N1)C(C)(C)C2 (stereo not shown) [Compound 209, 8-[3-(3,3-Dimethylbutyl)-2-oxoimidazolidin-1-yl]-12,12,17-trimethyl-2λ^6-thia-3,9,11,18,23-pentaazatetracyclo[17.3.1.111,14.05,10]tetracosa-1(22),5,7,9,19(23),20-hexaene-2,2,4-trione] | < 1000 nM | ++ (++ is 30-60%)
CC1(C)C[C@H]2C[C@@H](F)CNc3cccc(n3)S(=O)(=O)NC(=O)c3ccc(-n4ccc(OCCC5C6(CC6)C56CC6)n4)nc3N1C2 (single isomer, unassigned) [Compound 308, 8-[3-(2-{dispiro[2.0.2.1]heptan-7-yl}ethoxy)-1H-pyrazol-1-yl]-16-fluoro-12,12-dimethyl-2λ^6-thia-3,9,11,18,23-pentaazatetracyclo[17.3.1.111,14.05,10]tetracosa-1(22),5,7,9,19(23),20-hexaene-2,2,4-trione] | < 1000 nM | + (+ is <30%)
CC1(C)CC[C@H]2CNc3cccc(n3)S(=O)(=O)NC(=O)c3ccc(-n4ccc(OCCC5(C(F)(F)F)CC5)n4)nc3N21 (single isomer, unassigned) [Compound 50, 7,7-dimethyl-11-(3-{2-[1-(trifluoromethyl)cyclopropyl]ethoxy}-1H-pyrazol-1-yl)-17λ^6-thia-2,8,10,16,22-pentaazatetracyclo[16.3.1.04,8.09,14]docosa-1(22),9,11,13,18,20-hexaene-15,17,17-trione] | > 3000 nM | + (+ is <30%)
CC1(C)C[C@H]2CCCCn3cc(cn3)S(=O)(=O)NC(=O)c3ccc(-n4ccc(OCCC5(C(F)(F)F)CC5)n4)nc3N1C2 (single isomer, unassigned) [Compound 134, 21,21-Dimethyl-4-(3-{2-[1-(trifluoromethyl)cyclopropyl]ethoxy}-1H-pyrazol-1-yl)-10λ^6-thia-1,3,9,13,14-pentaazatetracyclo[17.2.1.111,14.02,7]tricosa-2,4,6,11(23),12-pentaene-8,10,10-trione] | < 1000 nM | + (+ is <30%)
CC(C)C(COc1ccn(-c2ccc3c(n2)N2C[C@@H](CC2(C)C)OCCNc2cccc(n2)S(=O)(=O)NC3=O)n1)C(C)C (single isomer, unassigned) [Compound 249, 12,12-dimethyl-8-{3-[3-methyl-2-(propan-2-yl)butoxy]-1H-pyrazol-1-yl}-15-oxa-2λ^6-thia-3,9,11,18,23-pentaazatetracyclo[17.3.1.111,14.05,10]tetracosa-1(23),5(10),6,8,19,21-hexaene-2,2,4-trione] | < 1000 nM | +++ (+++ is >60%)
CC1(C)C[C@@H]2CCCNc3cccc(n3)S(=O)(=O)NC(=O)c3ccc(N4CCN(CC56CC7CC(CC(C7)C5)C6)C4=O)nc3N1C2 [Compound 229, (14S)-8-{3-[(adamantan-1-yl)methyl]-2-oxoimidazolidin-1-yl}-12,12-dimethyl-2λ^6-thia-3,9,11,18,23-pentaazatetracyclo[17.3.1.111,14.05,10]tetracosa-1(22),5,7,9,19(23),20-hexaene-2,2,4-trione] | < 1000 nM | ++ (++ is 30-60%)
CN1CCC[C@H]2CCC(C)(C)N2c2nc(-n3ccc(OCCC4(C(F)(F)F)CC4)n3)ccc2C(=O)NS(=O)(=O)c2cccc1n2 [Compound 10, (15S)-12,12,19-trimethyl-8-(3-{2-[1-(trifluoromethyl)cyclopropyl]ethoxy}-1H-pyrazol-1-yl)-2λ^6-thia-3,9,11,19,24-pentaazatetracyclo[18.3.1.05,10.011,15]tetracosa-1(24),5(10),6,8,20,22-hexaene-2,2,4-trione] | > 3000 nM | + (+ is <30%)
